≈ marks a conversion by molar mass, not a printed value. Where two headings read alike, the source gives them in different places.
Tests used:
[1] = tested on: T. gondii RH strain tachyzoites; experiment: [3H]uracil incorporation assay of T. gondii proliferation in L929 host cells; format: cell-based; details: Toxoplasma gondii, L929, read-out: IC50 (50% of T. gondii proliferation inhibition in vitro)
[2] = tested on: Gram-positive bacterial species and clinical isolates of Staphylococcus aureus; parameters: method as in PMID 23428849; details: all test microorganisms; cited from earlier work
T. gondii RH strain = experiment: quantitative real-time PCR (B1 gene) of T. gondii in infected L929 cells; format: cell-based, Toxoplasma gondii; details: assay B qRT-PCR, L929 host cells
Method: T. gondii genomic DNA was isolated from the tachyzoites of RH strain with Wizard® SV Genomic DNA Purification System (Promega, Madison, WI, USA) according to the manufacturer’s instruction. The DNA concentration and purity were measured using a NanoPhotometer (Implen, München, Germany), while the integrity of the extracted DNA was tested using an ethidium bromide-stained agarose gel. DNA was used for the detection and quantitationof T. gondii in analyzed samples and it was stored at −20 °C until use.
A quantitative real-time PCR (qRT-PCR) assay, targeting B1 gene was performed to detect and to quantitate T. gondii in analyzed samples (1g, 2b, 2m, 3d, 3l and sulphadiazine) according to the modified protocol of Wahab et al.. […] Amplification was carried out on a 7900HT real-time PCR system (Applied Biosystems, Carlsbad, CA, USA). The reaction mixtures (25 µL) consisted of 1x TaqMan PCR master mix supplemented with ROX (Applied Biosystems), 300 nM probe, 900 nM of each primer and 2 µL of template DNA. For quantification a standard curve was constructed using 10-fold serial dilutions of DNA extracted from a known number of T. gondii. The cycling parameters were: 50 °C for 2 min, initial activation at 95 °C for 10 min, and 45 two-step cycles of 95 °C for 15 s and 60 °C for 1 min. All samples were analyzed in triplicate.

L929 cells = experiment: MTT cell viability assay (ISO 10993-5); format: cell-based, mouse; details: L929 cells
Method: (§1) Cell line L929 (ATTC® Catalog No. […] The MTT assay was used according to international standards: ISO 10993-5:2009(E), Biological evaluation of medical devices, Part 5: Tests for in vitro cytotoxicity. […] Then, 1 mg/mL MTT (50 μL/well) was added to each well and incubated at 37 °C, 10% CO2 for 2 h. Mitochondrial dehydrogenases of viable cells reduced the yellowish water-soluble MTT to water-insoluble formazan crystals, which were solubilized with dimethyl sulfoxide (DMSO). The cell culture medium was aspirated cautiously, after which 150 μL DMSO was added to each well and mixed thoroughly. Optical density (OD) was read on the ELISA reader (Multiskan EX, Labsystems, Vienna, VA, USA) at 550 nm. […] All experiments were performed in triplicate.

[3] = MTT cell viability assay (ISO 10993-5); format: cell-based, mouse; details: mouse, 24 h, ± SD
Method: as §1

[4] = tested on: T. gondii RH strain tachyzoites; experiment: [3H]uracil incorporation assay of T. gondii proliferation in L929 host cells; format: cell-based, Toxoplasma gondii; details: assay A [3H]uracil incorporation, vs untreated blank
Method: In the next step of our studies, the prepared 1,4-disubstituted thiosemicarbazides (series 1–3) were used to assess the inhibition of T. gondii growth in vitro. For this purpose, intracellular parasites (tachyzoites) of RH strain were incubated with different concentrations of the thiosemicarbazides ranging from 1 to 100 µg/mL. Inhibition of the parasite growth was monitored by measuring the specific incorporation of [^3H]uracil in the parasite’s nucleic acids.
The tachyzoites of T. gondii strain RH – intraspecies type I (ATCC_ Number 50174™) were maintained through passages on female C57BL/6 (H-2^b) and BALB/c (H-2^d) mice with genetically determined high and low susceptibility (respectively) to T. gondii infection (10–12 weeks old). Tachyzoites washed out from the peritoneum cavity were once expanded in vitro on L929 cells.
L929, (2 × 10^4 cells/100 µL/well) were grown in complete medium (IMDM) on 96-well plates. After 24 h incubation, a medium was removed and then T. gondii RH tachyzoites, suspended in culture medium supplemented with 1.0, 5.0, 10.0, 50.0 and 100.0 μg/mL 1,4-disubstituted thiosemicarbazides (1g, 2b, 2m, 3d, 3l) and as a control-sulfadiazine, were added (2 × 10^5 tachyzoites/200 µL/well) to the cell monolayers. After subsequent 48 h incubation 1 µCi/well of [^3H] uracil (Moravek Biochemicals Inc., Brea, CA, USA) was applied to each microculture for further 18–20 h. The amount of the isotope incorporated into the parasite nucleic acid pool, corresponding to the parasite growth, was measured by liquid scintillation counting with 1450 Microbeta Plus Liquid Scintillation Counter (Wallac Oy, Turku, Finland).

infected cells = tested on: infected cells; parameters: method as in PMID 20541294; details: read-out: LC50 for infected cells; cited from earlier work
[5] = target: bacterial topoisomerase IV; parameters: method as in PMID 21080016; details: cited from earlier work
topoisomerase IV = target: T1, topoisomerase IV (Staphylococcus aureus, UniProt P0C1S7+P0C1U9); experiment: S. aureus topoisomerase IV decatenation assay; format: biochemical
T1 construct: purchased Inspiralis
Method: The assays were performed using S. aureus topoisomerase IV decatenation kits (Inspiralis). Interlinked kDNA substrate ([…]) was incubated with 1 unit of topoisomerase IV (Inspiralis), in the dedicated decatenation assay buffer supplied by the manufacturer, in the presence of varying concentrations of the compounds tested. Reactions were carried out at 37 °C for 1 h and then terminated by the addition of equal volume of 2× STOP Buffer (40% sucrose, 100 mM Tris-Cl pH 7.5, 1 mM EDTA, 0.5 mg/mL bromophenol blue) and chloroform/isoamyl alcohol. Samples were vortexed, centrifuged and run through a 15 cm 1% agarose gel in TAE buffer for 1.5 h at 80 V. Gels were stained with ethidium bromide and visualized under UV light. The concentrations of the inhibitor that prevented 50% of the kinetoplast DNA from being converted into decatenated minicircles (IC50 values) were determined by plotting the results obtained from the densytometric analyses of the gel images using Quantity One software (BioRad, Hercules, CA, USA).

[6] = tested on: Gram-positive and Gram-negative bacterial strains; experiment: antibacterial assay (disc diffusion / agar dilution); format: cell-based; details: even at high concentrations
From the text: The following microorganisms were used in this study: Staphylococcus aureus (ATCC 25923, ATCC 6538, ATCC 29213, NCTC 4163), Staphylococcus epidermidis ATCC 12228, Bacillus subtilis ATCC 6633, Bacillus cereus ATCC 11778, Micrococcus luteus (ATCC 9341, ATCC 10240), Escherichia coli (ATCC 10538, ATCC 25922, NCTC 8196), […] NCTC 4635, Pseudomonas aeruginosa (ATCC 15442, ATCC 27853, NCTC 6749), and Bordetella bronchiseptica ATCC 4617. Initially, antibacterial activity of thiosemicarbazide derivatives was screened on the basis of growth inhibition zone (giz) utilizing the disc diffusion method, according to the Clinical and Laboratory Standards Institute guidelines. For compounds showing the inhibitory effect on the growth of tested bacteria, monitored as an appearance of giz, the minimal inhibitory concentrations (MICs) were determined using agar dilution method, according to the Clinical and Laboratory Standards Institute guidelines. The minimal inhibitory concentrations (MICs) were defined as the lowest concentration of the compound preventing growth of the tested microorganism. In both methods, recommended Mueller-Hinton II agar medium (Becton Dickinson, Heidelberg, Germany) was used. Solutions containing the tested agents were prepared in methanol or DMSO. Ciprofloxacin was used as control antimicrobial agent.

DNA gyrase = target: T2, DNA gyrase (Staphylococcus aureus, UniProt P0A0K8+P20831); experiment: S. aureus gyrase supercoiling assay; format: biochemical
T2 construct: purchased Inspiralis
Method: The assays were performed using S. aureus Gyrase Supercoiling Assay Kits (Inspiralis, Norwich, UK). Briefly, […] pBR322 plasmid DNA ([…]) was incubated with 1 unit of gyrase, in the dedicated supercoiling assay buffer supplied by the manufacturer, in the presence of varying concentrations of the compounds tested. Reactions were carried out at 37 °C for 1 h and then terminated by the addition of equal volume of 2 × STOP Buffer (40% sucrose, 100 mM Tris-Cl pH 7.5, 1 mM EDTA, and 0.5 mg/mL bromophenol blue) and chloroform/isoamyl alcohol. Samples were vortexed, centrifuged and run through a 15 cm 1% agarose gel in TAE buffer (40 mM Trisacetate, 2 mM EDTA) for 3 h at 50 V. Gels were stained with ethidium bromide and visualized under UV light.

[7] = read-out: viability of L929 cells

T1 sequence (P0C1U9 whole entry): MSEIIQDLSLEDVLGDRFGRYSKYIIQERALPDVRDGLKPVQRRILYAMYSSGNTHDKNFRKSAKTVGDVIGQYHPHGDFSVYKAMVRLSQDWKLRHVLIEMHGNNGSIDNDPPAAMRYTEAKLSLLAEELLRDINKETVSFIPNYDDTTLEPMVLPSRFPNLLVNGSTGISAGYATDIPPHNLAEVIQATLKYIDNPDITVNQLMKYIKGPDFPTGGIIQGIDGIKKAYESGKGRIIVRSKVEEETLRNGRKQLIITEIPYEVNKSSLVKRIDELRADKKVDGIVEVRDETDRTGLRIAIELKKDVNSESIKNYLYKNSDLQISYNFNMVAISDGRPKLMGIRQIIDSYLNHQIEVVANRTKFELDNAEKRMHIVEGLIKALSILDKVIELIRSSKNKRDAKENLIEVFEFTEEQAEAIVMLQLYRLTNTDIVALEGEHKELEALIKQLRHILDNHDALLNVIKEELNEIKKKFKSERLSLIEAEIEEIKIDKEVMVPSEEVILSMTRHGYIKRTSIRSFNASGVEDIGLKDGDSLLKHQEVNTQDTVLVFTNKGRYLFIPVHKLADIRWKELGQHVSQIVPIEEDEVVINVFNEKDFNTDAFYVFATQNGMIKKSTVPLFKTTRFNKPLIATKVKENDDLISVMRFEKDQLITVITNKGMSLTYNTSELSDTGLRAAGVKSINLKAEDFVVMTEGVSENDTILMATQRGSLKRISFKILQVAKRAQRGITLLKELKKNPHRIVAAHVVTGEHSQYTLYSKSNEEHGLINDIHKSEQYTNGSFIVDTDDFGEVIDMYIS
T1 sequence (P0C1S7 whole entry): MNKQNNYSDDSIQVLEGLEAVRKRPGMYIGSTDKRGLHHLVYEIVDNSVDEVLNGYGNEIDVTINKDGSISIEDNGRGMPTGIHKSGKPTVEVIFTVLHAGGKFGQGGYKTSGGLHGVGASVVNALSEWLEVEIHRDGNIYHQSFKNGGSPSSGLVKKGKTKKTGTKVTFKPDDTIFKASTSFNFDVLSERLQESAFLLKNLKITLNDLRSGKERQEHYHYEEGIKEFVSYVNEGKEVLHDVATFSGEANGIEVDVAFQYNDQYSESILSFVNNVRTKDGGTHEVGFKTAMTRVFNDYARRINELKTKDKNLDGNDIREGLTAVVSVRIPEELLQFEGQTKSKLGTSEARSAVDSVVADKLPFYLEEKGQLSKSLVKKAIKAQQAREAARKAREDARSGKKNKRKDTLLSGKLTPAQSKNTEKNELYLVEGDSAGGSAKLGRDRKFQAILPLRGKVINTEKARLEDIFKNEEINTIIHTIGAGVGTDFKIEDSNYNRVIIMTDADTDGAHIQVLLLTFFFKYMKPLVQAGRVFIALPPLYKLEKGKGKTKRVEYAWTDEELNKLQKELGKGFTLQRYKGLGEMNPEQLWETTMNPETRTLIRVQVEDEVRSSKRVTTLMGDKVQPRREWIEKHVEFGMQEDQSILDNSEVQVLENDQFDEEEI
T2 sequence (P0A0K8 whole entry): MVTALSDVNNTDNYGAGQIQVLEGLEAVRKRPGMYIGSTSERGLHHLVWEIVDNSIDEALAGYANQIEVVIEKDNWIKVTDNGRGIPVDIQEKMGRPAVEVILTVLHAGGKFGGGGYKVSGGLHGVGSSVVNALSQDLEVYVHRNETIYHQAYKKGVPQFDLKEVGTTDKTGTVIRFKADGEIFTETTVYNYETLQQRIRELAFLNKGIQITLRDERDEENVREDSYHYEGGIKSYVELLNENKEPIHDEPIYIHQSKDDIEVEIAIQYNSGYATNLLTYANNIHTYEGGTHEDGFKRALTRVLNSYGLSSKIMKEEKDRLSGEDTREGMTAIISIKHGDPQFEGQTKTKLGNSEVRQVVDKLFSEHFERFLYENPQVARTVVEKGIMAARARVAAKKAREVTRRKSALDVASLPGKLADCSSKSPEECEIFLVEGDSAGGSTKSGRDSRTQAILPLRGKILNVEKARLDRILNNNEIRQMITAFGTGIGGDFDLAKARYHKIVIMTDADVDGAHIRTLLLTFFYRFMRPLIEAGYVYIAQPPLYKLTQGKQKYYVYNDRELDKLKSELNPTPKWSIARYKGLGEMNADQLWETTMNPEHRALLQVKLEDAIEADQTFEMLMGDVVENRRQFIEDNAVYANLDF
T2 sequence (P20831 whole entry): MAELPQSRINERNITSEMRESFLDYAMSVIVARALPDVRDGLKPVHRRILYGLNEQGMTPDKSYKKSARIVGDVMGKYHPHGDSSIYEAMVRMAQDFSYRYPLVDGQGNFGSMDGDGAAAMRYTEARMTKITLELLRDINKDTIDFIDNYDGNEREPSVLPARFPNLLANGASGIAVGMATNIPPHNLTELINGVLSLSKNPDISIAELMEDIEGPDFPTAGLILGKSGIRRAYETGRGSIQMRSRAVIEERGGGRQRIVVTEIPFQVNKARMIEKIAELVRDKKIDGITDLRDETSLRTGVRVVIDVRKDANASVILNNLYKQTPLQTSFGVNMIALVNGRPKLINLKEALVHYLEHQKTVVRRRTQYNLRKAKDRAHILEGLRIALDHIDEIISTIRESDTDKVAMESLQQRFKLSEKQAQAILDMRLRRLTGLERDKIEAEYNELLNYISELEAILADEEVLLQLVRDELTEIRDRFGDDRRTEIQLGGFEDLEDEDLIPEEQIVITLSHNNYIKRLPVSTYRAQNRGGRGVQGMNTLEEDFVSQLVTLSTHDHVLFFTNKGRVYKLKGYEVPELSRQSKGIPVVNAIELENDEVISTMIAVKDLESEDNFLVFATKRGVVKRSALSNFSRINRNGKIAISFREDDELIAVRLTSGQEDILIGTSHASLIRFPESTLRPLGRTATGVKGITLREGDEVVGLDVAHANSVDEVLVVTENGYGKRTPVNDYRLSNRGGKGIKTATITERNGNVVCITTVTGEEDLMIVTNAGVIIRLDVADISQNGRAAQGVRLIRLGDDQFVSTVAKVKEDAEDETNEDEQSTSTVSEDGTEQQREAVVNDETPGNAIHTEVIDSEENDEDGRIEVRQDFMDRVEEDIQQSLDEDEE

## Cc1nnsc1C(=O)NNC(=S)Nc1ccc(F)cc1F [Compound 3l]
[1]
  IC50: 92.3 µg/mL (≈ 280 µM)
[2]
  antibacterial screening: ineffective
T. gondii RH strain; 50 µg/mL
  intensity of T. gondii proliferation: 89.32 ± 15.74 %
T. gondii RH strain; 100 µg/mL
  intensity of T. gondii proliferation: 14.08 ± 3.35 %
L929 cells
  CC30 (concentration required for 30% proliferation inhibition in vitro): 285.52 µg/mL
[3]; L929 mouse fibroblast cells
  viability at 24 h, 1 µg/mL: 96.54 ± 0.69%
  viability at 24 h, 5 µg/mL: 92.87 ± 0.23%
  viability at 24 h, 10 µg/mL: 95.89 ± 0.39%
  viability at 24 h, 50 µg/mL: 99 ± 10%
  viability at 24 h, 100 µg/mL: 89.5 ± 3.44%
  viability at 24 h, 500 µg/mL: 48 ± 10.1%
[4]; 1 µg/mL
  intensity of T. gondii proliferation: 84.59 ± 16.61%
[4]; 5 µg/mL
  intensity of T. gondii proliferation: 85.76 ± 19.71%
[4]; 10 µg/mL
  intensity of T. gondii proliferation: 103.21 ± 19.27%
[4]; 50 µg/mL
  intensity of T. gondii proliferation: 88.34 ± 14.40 %
[4]; 100 µg/mL
  intensity of T. gondii proliferation: 37.20 ± 7.47 %

## NC(=O)NO [hydroxyurea]
Infected cells
  CC50: > 10 mM

## O=C(NC(=S)NNC(=O)c1cc2ccccc2[nH]1)c1ccccc1 [4-benzoyl-1-(indol-2-yl)carbonyl-thiosemicarbazide]
[5]
  IC50: 14 µg/mL (≈ 41.4 µM)

## Cc1nc[nH]c1C(=O)NNC(=S)NC(=O)c1ccccc1 [4-benzoyl-1-(4-methyl-imidazol-5-yl)carbonylthiosemicarbazide]
[5]
  IC50: 90 µg/mL (≈ 297 µM)

## O=C(NNC(=S)Nc1ccc(F)cc1)c1cccs1 [Compound 1g, 4-(4-fluorophenyl)-1-(thiophen-2-yl)carbonylthiosemicarbazide]
[1]
  IC50: 33.2 µg/mL (≈ 112 µM)
Topoisomerase IV
  inhibitory effect on topoisomerase IV: No inhibitory effect
T. gondii RH strain; 10 µg/mL
  intensity of T. gondii proliferation: 61.01 ± 11.23 %
T. gondii RH strain; 50 µg/mL
  intensity of T. gondii proliferation: 5.00 ± 2.56 %
[6]
  growth-inhibiting effect on bacterial strains: no growth-inhibiting effect
[3]; [7]
  viability at 24 h, 1 µg/mL: 103 ± 2.69%
  viability at 24 h, 5 µg/mL: 99.5 ± 5.16%
  viability at 24 h, 10 µg/mL: 97.3 ± 4.98%
  viability at 24 h, 50 µg/mL: 79 ± 2.89%
  viability at 24 h, 100 µg/mL: 67 ± 11.4%
  viability at 24 h, 500 µg/mL: 39.8 ± 5.83%
DNA gyrase
  inhibitory effect on DNA gyrase: No inhibitory effect
[4]; 1 µg/mL
  intensity of T. gondii proliferation: 96.14 ± 14.54%
[4]; 5 µg/mL
  intensity of T. gondii proliferation: 74.94 ± 7.00 %
[4]; 10 µg/mL
  intensity of T. gondii proliferation: 44.71 ± 16.60 %
[4]; 50 µg/mL
  intensity of T. gondii proliferation: 12.62 ± 4.78 %

## Nc1ccc(S(=O)(=O)Nc2ncccn2)cc1 [sulfadiazine, reference compound]
[1]
  IC50: > 500 µg/mL
T. gondii RH strain; 100 µg/mL
  intensity of T. gondii proliferation: 63.99 ± 10.58 %
Infected cells
  CC50: > 10 mM

## Cc1nnsc1C(=O)NNC(=S)Nc1ccccc1Br [Compound 3d]
[1]
  IC50: 74.9 µg/mL (≈ 201 µM)
[2]
  antibacterial screening: ineffective
T. gondii RH strain; 50 µg/mL
  intensity of T. gondii proliferation: 75.13 ± 10.10 %
T. gondii RH strain; 100 µg/mL
  intensity of T. gondii proliferation: 25.56 ± 6.32 %
L929 cells
  CC30 (concentration required for 30% proliferation inhibition in vitro): 242.56 µg/mL
[3]; L929 mouse fibroblast cells
  viability at 24 h, 1 µg/mL: 102 ± 3.89%
  viability at 24 h, 5 µg/mL: 99.14 ± 0.82%
  viability at 24 h, 10 µg/mL: 97.5 ± 5.98%
  viability at 24 h, 50 µg/mL: 90.9 ± 6.71%
  viability at 24 h, 100 µg/mL: 79.5 ± 5.82%
  viability at 24 h, 500 µg/mL: 41.5 ± 5.16%
[4]; 1 µg/mL
  intensity of T. gondii proliferation: 90.03 ± 14.61%
[4]; 5 µg/mL
  intensity of T. gondii proliferation: 84.64 ± 15.68%
[4]; 10 µg/mL
  intensity of T. gondii proliferation: 83.84 ± 19.01%
[4]; 50 µg/mL
  intensity of T. gondii proliferation: 63.82 ± 5.32 %
[4]; 100 µg/mL
  intensity of T. gondii proliferation: 36.52 ± 5.16 %
